# Measured values reported in patent US20140066595A1, “Modulators of Protein Production in a Human Cell Line and Cell-free Extracts Produced Therefrom” (THERMO FISHER SCIENTIFIC BIOSCIENCES INC., priority 2012, published 2014).
# Entries after “also recorded” stand apart in the source; their conditions may differ.
# Key:
# HeLaS3-Gluc cells [1] = test: Viability of HeLaS3-Gluc cells treated with amiloride, with or without ER stressors; assay type: cell-based, human
# Protocol: (§1) HeLaS3-Gluc cells were plated at 10K/well and incubated overnight. Subsequently, they were pre-treated with amiloride and incubated for 1 hour. Amiloride was used at increasing doses, both alone and in the presence of cellular stressors tunicamycin or thapsigargin. When the ER stressors were included, incubation was for 2 hours, at which time Gluc was measured. The media was then changed, and amiloride and ER stressors were added again. This time incubation was overnight. The media was again changed and the amount of Gluc made was measured after two hours. Amiloride was used in amounts of 0-500 μM. Tunicamycin was used in an amount of 5 μM. Thapsigargin was used in an amount of 2 μM.
# HeLaS3-Gluc cells [2] = test: Gluc expression of HeLaS3-Gluc cells treated with amiloride, with or without ER stressors; assay type: cell-based, human
# Protocol: as §1
# [3] = amiloride alone, 0-500 μM, no stress, normalized to no amiloride at 18 hours (FIG. 1)
compound,measurement,setting,value
"N=C(N)NC(=O)c1nc(Cl)c(N)nc1N [amiloride, 3,5-diamino-6-chloro-N-(diaminomethylene) pyrazine 2-carboxamide]",cell viability under ER stress,"HeLaS3-Gluc cells [1]; amiloride 0-500 μM with tunicamycin 5 μM or thapsigargin 2 μM, normalized to no stress at 18 hours (FIG. 2)",does not have an additional effect on cell viability
same,viability of unstressed cells,HeLaS3-Gluc cells [1]; [3],decrease in viability
same,Gluc expression (luciferase output) under ER stress,"HeLaS3-Gluc cells [2]; amiloride 0-500 μM with tunicamycin 5 μM or thapsigargin 2 μM, 18 hours (FIG. 3)",rescued by treatment with an increasing amount of amiloride; also recorded: can restore Gluc expression
same,Gluc expression (luciferase output) of unstressed cells,HeLaS3-Gluc cells [2]; [3],did not lead to increased luciferase output
